Experiment [1] deals with T1, IKZF1 (Homo sapiens, UniProt Q13422+Q96SW2).
T1 construct: expressed in transfected cells
As to the kind of experiment: Prolabel quantification of IKZF1 protein levels in 293GT cells. The experiment is classed as cell-based. The settings on record: Pro-label assay in 293GT cells; for AC50: read-out: IKZF1 Degradation AC50; for IKZF1 Degradation (%): % degradation is at 10 μM. The method, then:
(§1) The Prolabel system from DiscoverX was used to develop high-throughput and quantitative assays to measure changes in IKZF1, IKZF2 and GSPT1 protein levels in response to compounds. The prolabel tag was derived from the alpha fragment of beta galactosidase and has the following protein sequence: mssnslavvlqadwenpgvtqlnrlaahppfaswrnseeartdrpsqqlislnge. The complementary fragment of beta-galactosidase (from DiscoverX), is added to the prolabel tag to form an active beta galactosidase enzyme whose activity can be precisely measured. In this way, the levels of a fusion protein with the prolabel tag can be quantified in cell lysates.
(§2) Lentiviral vectors, based on the Invitrogen pLenti6.2/V5 DEST backbone, were constructed that placed the prolabel tag upstream of IKZF1, IKZF2 or GSPT1 and expressed the fusion protein from a CMV promoter.
(§3) To ensure moderate and consistent expression of the prolabel fusion proteins across all cells in the population, stable cell lines were constructed from cells expressing a single copy of the construct. Lentivirus packaged with the constructs was made using the Virapower kit from Invitrogen.
(§4) The levels of prolabel tagged fusion proteins in compound treated cell lines were measured as follows:
(§5) Day 1, Cells were diluted to 1.0×10^6 cells/ml in normal growth medium. 17.5 μL, of cells were plated in each well of a solid white 384 well plate. Plates were incubated overnight in a 37° C. tissue culture incubator.
(§6) Day 2, Serial dilutions of compounds were made in 384 well plates from 10 mM stocks. 15 μL, of DMSO was added to each well of a 384 well plate. In the first column, 15 μL of stock compound was added. The solution was mixed and 15 μL was transferred to the next column. This was repeated until 20 two-fold dilutions were prepared. 2.5 μL, of diluted compounds were transferred into 60 μL of cell culture medium in another 384 well plate, and mixed well. 2.5 μL of this mixture was added to the plated cells. The final DMSO concentration was 0.5% and the highest concentration of compound was 50 μM. Plates were incubated overnight (e.g., about 14 h, 18 h, or 24 h) in a 37° C. tissue culture incubator.
(§7) Day 3, Plates were removed from the incubator and allowed to equilibrate at rt for 30 minutes. Prolabel substrate (DiscoverX PathHunter Prolabel Detection Kit, User manual: 93-0180) was added as described by the manufacturers protocols. Plates were incubated at rt for three hours and luminescence was read using an Envision reader (Perkin Elmer) Data was analyzed and visualized using the Spotfire software package.

Experiment [2] concerns the target T2, IKZF2 (Homo sapiens, UniProt Q96SW2+Q9UKS7).
T2 construct: expressed in transfected cells
Nature of the experiment: Prolabel quantification of IKZF2 protein levels in 293GT cells. The experiment is classed as cell-based. Particulars: Pro-label assay in 293GT cells; for AC50: read-out: IKZF2 Degradation AC50; for IKZF2 Degradation (%): % degradation is at 10 μM. Here is the method: as §1, §2, §3, §4, §5, §6, §7

The structures appear in SMILES notation.

T1 sequence (Q13422 whole entry): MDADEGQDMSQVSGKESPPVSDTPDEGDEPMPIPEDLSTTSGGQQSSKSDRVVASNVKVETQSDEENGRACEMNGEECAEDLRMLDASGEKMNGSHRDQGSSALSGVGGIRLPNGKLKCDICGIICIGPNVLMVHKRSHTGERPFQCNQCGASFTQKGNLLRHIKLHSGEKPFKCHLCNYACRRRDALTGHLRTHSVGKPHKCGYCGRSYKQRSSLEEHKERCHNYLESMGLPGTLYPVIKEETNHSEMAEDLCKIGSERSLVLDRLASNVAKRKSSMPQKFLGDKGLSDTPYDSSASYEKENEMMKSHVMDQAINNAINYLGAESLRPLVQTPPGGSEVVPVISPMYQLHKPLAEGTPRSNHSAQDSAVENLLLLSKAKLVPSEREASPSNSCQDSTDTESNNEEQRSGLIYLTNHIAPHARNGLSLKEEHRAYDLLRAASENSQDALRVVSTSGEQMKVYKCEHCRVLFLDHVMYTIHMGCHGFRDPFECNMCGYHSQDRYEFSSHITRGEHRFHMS
T1 sequence (Q96SW2 whole entry): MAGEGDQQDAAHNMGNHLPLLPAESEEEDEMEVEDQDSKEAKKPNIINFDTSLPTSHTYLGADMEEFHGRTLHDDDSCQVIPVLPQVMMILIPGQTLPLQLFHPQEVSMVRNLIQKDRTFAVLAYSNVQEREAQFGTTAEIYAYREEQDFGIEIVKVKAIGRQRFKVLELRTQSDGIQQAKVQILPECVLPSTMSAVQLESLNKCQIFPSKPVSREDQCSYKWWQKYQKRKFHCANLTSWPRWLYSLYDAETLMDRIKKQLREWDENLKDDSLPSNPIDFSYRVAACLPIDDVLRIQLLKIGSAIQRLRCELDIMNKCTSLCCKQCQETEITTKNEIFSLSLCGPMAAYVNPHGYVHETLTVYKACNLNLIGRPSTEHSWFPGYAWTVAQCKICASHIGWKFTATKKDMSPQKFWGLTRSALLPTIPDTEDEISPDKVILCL
T1 sequence (Q16531 whole entry partner): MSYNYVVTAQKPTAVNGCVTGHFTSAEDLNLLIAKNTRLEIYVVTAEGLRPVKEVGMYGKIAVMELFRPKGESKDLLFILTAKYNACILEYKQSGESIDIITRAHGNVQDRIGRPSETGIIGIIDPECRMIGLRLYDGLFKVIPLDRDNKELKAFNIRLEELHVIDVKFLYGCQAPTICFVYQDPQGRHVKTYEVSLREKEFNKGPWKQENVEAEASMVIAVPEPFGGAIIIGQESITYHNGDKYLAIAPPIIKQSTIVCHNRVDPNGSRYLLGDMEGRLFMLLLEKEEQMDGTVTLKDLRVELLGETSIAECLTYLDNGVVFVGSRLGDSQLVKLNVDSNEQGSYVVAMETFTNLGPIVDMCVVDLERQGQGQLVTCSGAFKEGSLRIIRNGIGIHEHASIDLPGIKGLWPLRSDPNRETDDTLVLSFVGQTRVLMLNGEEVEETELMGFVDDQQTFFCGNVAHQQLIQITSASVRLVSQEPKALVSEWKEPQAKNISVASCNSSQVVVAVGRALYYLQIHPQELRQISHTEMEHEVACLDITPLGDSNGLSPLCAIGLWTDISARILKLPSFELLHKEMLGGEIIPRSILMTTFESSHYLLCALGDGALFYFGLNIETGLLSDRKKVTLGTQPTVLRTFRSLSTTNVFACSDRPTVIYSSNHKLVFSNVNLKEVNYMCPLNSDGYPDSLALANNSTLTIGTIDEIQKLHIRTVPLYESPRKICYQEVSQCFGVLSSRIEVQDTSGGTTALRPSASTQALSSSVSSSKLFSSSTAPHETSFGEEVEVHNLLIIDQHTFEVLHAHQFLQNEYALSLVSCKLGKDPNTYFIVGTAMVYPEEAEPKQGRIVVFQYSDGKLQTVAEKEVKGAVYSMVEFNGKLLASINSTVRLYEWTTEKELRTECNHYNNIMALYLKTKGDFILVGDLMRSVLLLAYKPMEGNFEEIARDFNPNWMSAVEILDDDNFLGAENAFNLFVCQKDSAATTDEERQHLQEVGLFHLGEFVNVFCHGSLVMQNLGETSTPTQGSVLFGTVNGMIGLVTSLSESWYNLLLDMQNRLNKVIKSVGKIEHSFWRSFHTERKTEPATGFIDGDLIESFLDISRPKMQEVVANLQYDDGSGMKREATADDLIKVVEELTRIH
T2 sequence (Q9UKS7 whole entry): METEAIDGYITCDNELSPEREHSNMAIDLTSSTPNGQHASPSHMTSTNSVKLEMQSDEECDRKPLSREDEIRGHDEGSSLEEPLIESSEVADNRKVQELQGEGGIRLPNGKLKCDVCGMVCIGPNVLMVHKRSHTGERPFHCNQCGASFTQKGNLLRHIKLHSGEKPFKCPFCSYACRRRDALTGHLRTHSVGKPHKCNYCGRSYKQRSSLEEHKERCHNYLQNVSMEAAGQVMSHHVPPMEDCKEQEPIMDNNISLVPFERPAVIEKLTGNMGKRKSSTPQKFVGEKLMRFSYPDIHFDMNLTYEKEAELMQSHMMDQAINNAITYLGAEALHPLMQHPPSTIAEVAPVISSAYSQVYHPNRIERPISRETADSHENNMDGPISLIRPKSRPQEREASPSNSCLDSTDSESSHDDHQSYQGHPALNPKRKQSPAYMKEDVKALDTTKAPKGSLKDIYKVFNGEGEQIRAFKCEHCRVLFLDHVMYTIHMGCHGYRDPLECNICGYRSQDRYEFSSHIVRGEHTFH
T2 sequence (Q96SW2 whole entry): as the sequence (Q96SW2 whole entry) above
T2 sequence (Q16531 whole entry partner): as the sequence (Q16531 whole entry partner) above

The term AC50 denotes the concentration at which the activity in the assay is half-maximal. For the molecule `O=C1CCC(N2Cc3cc(C4CCN(Cc5ccccc5)CC4)ncc3C2=O)C(=O)N1` (stereo not drawn) [Compound I-2, 3-(6-(1-benzylpiperidin-4-yl)-3-oxo-1,3-dihydro-2H-pyrrolo[3,4-c]pyridin-2-yl)piperidine-2,6-dione], the concentration at half-maximal activity (AC50) in experiment [1] and in experiment [2] was over 30000 nM throughout.

As for `O=C1CCC(N2Cc3nc(C4CCN(Cc5ccccc5)CC4)ccc3C2=O)C(=O)N1` (stereo not drawn) [Compound I-1, 3-(2-(1-benzylpiperidin-4-yl)-5-oxo-5,7-dihydro-6H-pyrrolo[3,4-b]pyridin-6-yl)piperidine-2,6-dione], in experiment [1], the AC50 is over 30000 nM. Besides, in experiment [2], the “IKZF2 Degradation (%)” value came out at 33% and the AC50 is 260 nM.

As for `Nc1cccc2c1C(=O)N(C1CCC(=O)NC1=O)C2=O` (stereo not drawn) [Pomalidomide, 4-amino-2-(2,6-dioxopiperidin-3-yl)isoindoline-1,3-dione, reference compound], the “IKZF1 Degradation (%)” value in experiment [1] worked out at 80%.

As for `COc1c(C2=CCN(Cc3ccccc3)CC2)ccc2c1CN(C1CCC(=O)NC1=O)C2=O` (stereo not drawn) [Compound I-20, 3-(5-(1-benzyl-1,2,3,6-tetrahydropyridin-4-yl)-4-methoxy-1-oxoisoindolin-2-yl)piperidine-2,6-dione], in experiment [1], the “IKZF1 Degradation (%)” value came out at 40% and the concentration at half-maximal activity (AC50) turned out to be 66 nM. In experiment [2], the “IKZF2 Degradation (%)” value turned out to be 42% and the AC50 is 200 nM.

With `O=C1CCC(N2Cc3cc(C4CCN(Cc5ccncc5)CC4)c(F)cc3C2=O)C(=O)N1` (stereo not drawn) [Compound I-16, 3-(6-fluoro-1-oxo-5-(1-(pyridin-4-ylmethyl)piperidin-4-yl)isoindolin-2-yl)piperidine-2,6-dione], in experiment [1], the “IKZF1 Degradation (%)” value came to 22% and the AC50 is 7600 nM. In experiment [2], the “IKZF2 Degradation (%)” value is given as 42% and the AC50 was found to be 560 nM.

Consider `O=C1CCC(N2Cc3c(ccc(C4CCN(Cc5ccccc5)CC4)c3F)C2=O)C(=O)N1` (stereo not drawn) [Compound I-3, 3-(5-(1-benzylpiperidin-4-yl)-4-fluoro-1-oxoisoindolin-2-yl)piperidine-2,6-dione], for which, in experiment [1], the half-maximal activity concentration (AC50) was over 30000 nM. In experiment [2], the “IKZF2 Degradation (%)” value was 72% and the half-maximal activity concentration (AC50) is 6 nM.

Consider `Cc1c(C2CCN(Cc3ccccc3)CC2)ccc2c1CN(C1CCC(=O)NC1=O)C2=O` (stereo not drawn) [Compound I-5, 3-(5-(1-benzylpiperidin-4-yl)-4-methyl-1-oxoisoindolin-2-yl)piperidine-2,6-dione], for which, in experiment [1], the concentration at half-maximal activity (AC50) is over 30000 nM. Further, in experiment [2], the “IKZF2 Degradation (%)” value was determined as 59% and the concentration at half-maximal activity (AC50) turned out to be 110 nM.

As to `CO[C@H]1CC[C@H](CN2CCC(c3ccc4c(c3Cl)CN(C3CCC(=O)NC3=O)C4=O)CC2)CC1` (stereo partly drawn) [Compound I-17, 3-(4-chloro-5-(1-(((1r,4r)-4-methoxycyclohexyl)methyl)piperidin-4-yl)-1-oxoisoindolin-2-yl)piperidine-2,6-dione], in experiment [1], the “IKZF1 Degradation (%)” value came out at 40% and the AC50 was determined as 130 nM. Also, in experiment [2], the “IKZF2 Degradation (%)” value is reported as 30% and the AC50 was found to be 75 nM.

(Values after patent US12479817B2, “Substituted 3-(1-oxoisoindolin-2-yl)piperidine-2,6-dione derivatives and uses thereof” (Novartis AG, priority 2019, dated 2025).)
